Values of other authors in US20200038318A1, “ORAL MEDICATION FORMULATIONS” (GRUNBIOTICS PTY LTD, priority 2016, published 2020).

Tested on: patients with major depressive disorder who have a partial response or no response to SSRIs
Settings: 15 mg/day

In the case of CN1c2c([nH]c(N)nc2=O)NC[C@@H]1CNc1ccc(C(=O)N[C@@H](CCC(=O)O)C(=O)O)cc1 [L-methylfolate], the “Efficacy, safety and tolerability as adjunctive treatment” value is given as “effective safe and relatively well tolerated”.
